Data from ChEMBL document CHEMBL4765241, “Identification and Preclinical Pharmacology of ((1 R,3 S)-1-Amino-3-(( S)-6-(2-methoxyphenethyl)-5,6,7,8-tetrahydronaphthalen-2-yl)cyclopentyl)methanol (BMS-986166): A Differentiated Sphingosine-1-phosphate Receptor 1 (S1P) Modulator Advanced into Clinical Trials” (J Med Chem, 2019).
The source made the active and inactive calls. The calls are words filed in the database; no cut-off is given here.

Tests used:
Mus musculus [1] = assay: Antiarthritic activity in DBA/1 mouse model of collagen-induced arthritis assessed as reduction in paw histological score at 0.1 mg/kg, po QD administered as single dose for 21 days; type: functional; set-up: scale not given: the % may be the effect or the level left; conditions: time 21 day
[2] = AUC ratio in orally dosed Beagle dog blood assessed as phosphate metabolite to parent compound; type: ADME, organism-based, Canis lupus familiaris; conditions: in vivo, po
Mus musculus [3] = assay: (§1) Immunosuppressive activity in MOG (35 to 55 residues)/pertussis toxin-induced experimental autoimmune encephalomyelitis C57BL/6 mouse model assessed as maximum efficacy causing reduction in EAE spinal cord clinical score administered orally once daily starting from day 1 post immunization and measured thrice weekly until day 24; type: functional
[4] = Pulmonary toxicity in Lewis rat assessed as elevation of BAL protein level at 10 mg/kg by advia1800 chemistry analyzer; type: organism-based; conditions: in vivo
[5] = Drug metabolism in Lewis rat blood assessed as concentration of parent compound at 2 mg/kg, po measured at 24 hrs by LC-MS/MS analysis; type: ADME, organism-based; conditions: read-out: Ct
[6] = Terminal half-life in cynomolgus monkey at 1 mg/kg, iv; type: ADME, organism-based, Macaca fascicularis; conditions: in vivo, read-out: beta t1/2 (converted)
[7] = AUC ratio in orally dosed cynomolgus monkey blood assessed as phosphate metabolite to parent compound; type: ADME, organism-based, Macaca fascicularis; conditions: in vivo, po
[8] = Protein binding in rat assessed as bound fraction; type: ADME; conditions: read-out: PB
Rattus norvegicus [9] = assay: Reduction in circulating lymphocytes in Lewis rat blood at 2 mg/kg, po measured at 4 hrs by hematology analyzer based analysis; type: functional; set-up: scale not given: the % may be the effect or the level left
[10] = Volume of distribution at steady state in Sprague-Dawley rat at 1 mg/kg, po or 1 mg/kg, iv; type: ADME, organism-based; conditions: in vivo, read-out: Vdss
[11] = Volume of distribution at steady state in Beagle dog at 0.3 mg/kg, po or 1 mg/kg, iv; type: ADME, organism-based, Canis lupus familiaris; conditions: in vivo, read-out: Vdss
Cytochrome P450 2D6 = Cytochrome P450 2D6 (Homo sapiens, UniProt P10635); assay: Inhibition of CYP2D6 (unknown origin); type: ADME
[12] = Metabolic stability in rat liver microsomes assessed as half-life measured upto 120 mins in presence of NADPH-generating system by LC/MS/MS analysis; type: ADME, Microsome
[13] = Ratio of drug metabolism in Lewis rat blood assessed as phosphate ester metabolite to parent drug at 2 mg/kg, po measured at 24 hrs by LC-MS/MS analysis; type: ADME, organism-based; conditions: in vivo
Mus musculus [14] = assay: Antiarthritic activity in DBA/1 mouse model of collagen-induced arthritis assessed as reduction in paw histological score administered orally once daily as single dose for 21 days; type: functional, organism-based; conditions: time 21.0 day
Mus musculus [15] = assay: as §1, with “as” for “as maximum efficacy causing”, “in” for “in EAE spinal cord”, “scores for inflammation” for “score”; type: functional, organism-based; conditions: dose 0.1-0.5 mg/kg
[16] = Half-life in Lewis rat at 2 mg/kg, po measured over 72 hrs by LC-MS/MS analysis; type: ADME, organism-based; conditions: in vivo
[17] = Metabolic stability in cynomolgus monkey liver microsomes assessed as half-life; type: ADME, Macaca fascicularis, Microsome
[18] = Pulmonary toxicity in Lewis rat assessed as elevation of BAL protein level at 3 mg/kg by advia1800 chemistry analyzer; type: organism-based; conditions: in vivo
[19] = Protein binding in mouse assessed as bound fraction; type: ADME; conditions: read-out: PB
Cytochrome P450 2C9 = Cytochrome P450 2C9 (Homo sapiens, UniProt P11712); assay: Inhibition of CYP2C9 (unknown origin); type: ADME
[20] = Clearance in cynomolgus monkey at 1 mg/kg, iv; type: ADME, organism-based, Macaca fascicularis; conditions: in vivo
Mus musculus [21] = assay: as §1, with “as” for “as maximum efficacy causing”, “formation of inflammatory lesions in CNS” for “EAE spinal cord clinical score”; type: functional, organism-based; conditions: dose 0.1-0.5 mg/kg
[22] = Dissociation constant, pKa of compound; type: physicochemical
[23] = Drug metabolism in Lewis rat blood assessed as concentration of parent compound at 2 mg/kg, po measured at 4 hrs by LC-MS/MS analysis; type: ADME, organism-based; conditions: read-out: Ct
[24] = Protein binding in dog assessed as bound fraction; type: ADME, Canis lupus familiaris; conditions: read-out: PB
[25] = Genotoxicity in bacteria by Ames test; type: toxicity
[26] = Tmax in Sprague-Dawley rat at 1 mg/kg, po or 1 mg/kg, iv; type: ADME, organism-based; conditions: in vivo
Rattus norvegicus [27] = assay: Reduction in circulating lymphocytes in Lewis rat blood at 2 mg/kg, po measured at 24 hrs by hematology analyzer based analysis; type: functional; set-up: scale not given: the % may be the effect or the level left
[28] = Protein binding in cynomolgus monkey assessed as bound fraction; type: ADME, Macaca fascicularis; conditions: read-out: PB
Cytochrome P450 3A4 = Cytochrome P450 3A4 (Homo sapiens, UniProt P08684); assay: Inhibition of CYP3A4 (unknown origin); type: ADME
[29] = Distribution coefficient, log D of compound at pH 6.5; type: physicochemical; conditions: octanol/water
[30] = Tmax in Beagle dog at 0.3 mg/kg, po or 1 mg/kg, iv; type: ADME, organism-based, Canis lupus familiaris; conditions: in vivo
[31] = Metabolic stability in dog liver microsomes assessed as half-life measured upto 120 mins in presence of NADPH-generating system by LC/MS/MS analysis; type: ADME, Canis lupus familiaris, Microsome
[32] = Volume of distribution at steady state in cynomolgus monkey at 1 mg/kg, po or 1 mg/kg, iv; type: ADME, organism-based, Macaca fascicularis; conditions: in vivo, read-out: Vdss
Mus musculus [33] = assay: Antiarthritic activity in DBA/1 mouse model of collagen-induced arthritis assessed as reduction in paw histological score at 0.5 mg/kg, po QD administered as single dose for 21 days; type: functional; set-up: scale not given: the % may be the effect or the level left; conditions: time 21 day
[34] = Tmax in cynomolgus monkey at 1 mg/kg, po or 1 mg/kg, iv; type: ADME, organism-based, Macaca fascicularis; conditions: in vivo
Cytochrome P450 2C19 = Cytochrome P450 2C19 (Homo sapiens, UniProt P33261); assay: Inhibition of CYP2C19 (unknown origin); type: ADME
Cytochrome P450 1A2 = biological target: T1, Cytochrome P450 1A2 (Homo sapiens, UniProt P05177); assay: Inhibition of CYP1A2 (unknown origin); type: ADME
T1 sequence (P05177 whole entry): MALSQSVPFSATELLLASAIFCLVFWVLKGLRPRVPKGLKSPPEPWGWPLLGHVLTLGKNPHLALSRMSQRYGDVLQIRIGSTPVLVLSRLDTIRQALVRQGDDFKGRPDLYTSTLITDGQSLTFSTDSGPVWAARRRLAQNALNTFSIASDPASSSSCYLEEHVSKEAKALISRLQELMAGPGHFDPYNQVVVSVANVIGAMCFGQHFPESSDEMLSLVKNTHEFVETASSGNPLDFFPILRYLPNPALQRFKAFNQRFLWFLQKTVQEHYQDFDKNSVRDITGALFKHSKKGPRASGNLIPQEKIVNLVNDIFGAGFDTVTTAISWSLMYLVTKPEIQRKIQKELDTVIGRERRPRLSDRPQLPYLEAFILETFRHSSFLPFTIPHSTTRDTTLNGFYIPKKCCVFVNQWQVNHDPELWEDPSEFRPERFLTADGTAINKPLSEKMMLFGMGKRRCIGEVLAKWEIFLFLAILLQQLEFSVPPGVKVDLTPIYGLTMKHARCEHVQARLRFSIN

[35] = Clearance in Beagle dog at 1 mg/kg, iv; type: ADME, organism-based, Canis lupus familiaris; conditions: in vivo
Rattus norvegicus [36] = assay: Drug metabolism in Lewis rat blood assessed as concentration of phosphate ester metabolite formation at 2 mg/kg, po measured at 4 hrs by LC-MS/MS analysis; conditions: in vivo
[37] = Oral bioavailability in Sprague-Dawley rat at 1 mg/kg; type: ADME, organism-based; conditions: in vivo
[38] = Oral bioavailability in beagle dog at 0.3 mg/kg; type: ADME, organism-based, Canis lupus familiaris; conditions: in vivo

Cytochrome P450 2C19, sequence (P33261 whole entry): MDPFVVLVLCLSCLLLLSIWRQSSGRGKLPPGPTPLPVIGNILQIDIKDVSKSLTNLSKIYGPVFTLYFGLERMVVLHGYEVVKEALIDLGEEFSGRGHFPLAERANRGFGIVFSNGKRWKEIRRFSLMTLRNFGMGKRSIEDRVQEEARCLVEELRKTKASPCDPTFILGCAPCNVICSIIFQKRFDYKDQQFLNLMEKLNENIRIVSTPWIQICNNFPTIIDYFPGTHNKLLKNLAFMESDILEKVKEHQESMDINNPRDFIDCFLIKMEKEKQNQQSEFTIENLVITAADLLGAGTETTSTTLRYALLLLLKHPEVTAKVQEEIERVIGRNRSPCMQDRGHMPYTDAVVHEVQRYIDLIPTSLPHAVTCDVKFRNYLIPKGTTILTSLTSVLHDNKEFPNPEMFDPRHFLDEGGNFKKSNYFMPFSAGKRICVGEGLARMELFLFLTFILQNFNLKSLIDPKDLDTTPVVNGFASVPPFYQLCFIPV
Cytochrome P450 2D6, sequence (P10635 whole entry): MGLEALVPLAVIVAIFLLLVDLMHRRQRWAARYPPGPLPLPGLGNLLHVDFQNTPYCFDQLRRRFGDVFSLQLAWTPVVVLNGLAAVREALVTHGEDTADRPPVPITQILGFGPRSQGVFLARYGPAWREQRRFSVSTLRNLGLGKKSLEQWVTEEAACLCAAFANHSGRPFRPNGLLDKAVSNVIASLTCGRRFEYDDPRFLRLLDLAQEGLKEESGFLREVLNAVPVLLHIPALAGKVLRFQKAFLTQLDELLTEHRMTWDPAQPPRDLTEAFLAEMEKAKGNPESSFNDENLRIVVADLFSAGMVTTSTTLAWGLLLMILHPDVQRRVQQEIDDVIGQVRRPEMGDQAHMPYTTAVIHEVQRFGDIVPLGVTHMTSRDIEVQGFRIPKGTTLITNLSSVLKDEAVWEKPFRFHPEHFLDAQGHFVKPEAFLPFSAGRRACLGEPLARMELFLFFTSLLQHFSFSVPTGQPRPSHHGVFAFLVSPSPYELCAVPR
Cytochrome P450 2C9, sequence (P11712 whole entry): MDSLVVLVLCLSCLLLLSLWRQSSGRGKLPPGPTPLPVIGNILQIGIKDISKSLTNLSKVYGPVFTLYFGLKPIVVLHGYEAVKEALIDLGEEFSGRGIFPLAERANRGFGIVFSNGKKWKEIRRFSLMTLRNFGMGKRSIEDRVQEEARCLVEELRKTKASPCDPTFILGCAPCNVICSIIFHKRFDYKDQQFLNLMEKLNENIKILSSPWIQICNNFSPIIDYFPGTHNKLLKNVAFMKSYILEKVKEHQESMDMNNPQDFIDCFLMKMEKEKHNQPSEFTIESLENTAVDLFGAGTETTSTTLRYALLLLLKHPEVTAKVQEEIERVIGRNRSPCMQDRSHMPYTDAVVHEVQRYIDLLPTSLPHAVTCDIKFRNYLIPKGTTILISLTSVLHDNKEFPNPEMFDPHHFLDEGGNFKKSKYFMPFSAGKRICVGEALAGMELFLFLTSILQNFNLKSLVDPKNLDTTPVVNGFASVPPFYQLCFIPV
Cytochrome P450 3A4, sequence (P08684 whole entry): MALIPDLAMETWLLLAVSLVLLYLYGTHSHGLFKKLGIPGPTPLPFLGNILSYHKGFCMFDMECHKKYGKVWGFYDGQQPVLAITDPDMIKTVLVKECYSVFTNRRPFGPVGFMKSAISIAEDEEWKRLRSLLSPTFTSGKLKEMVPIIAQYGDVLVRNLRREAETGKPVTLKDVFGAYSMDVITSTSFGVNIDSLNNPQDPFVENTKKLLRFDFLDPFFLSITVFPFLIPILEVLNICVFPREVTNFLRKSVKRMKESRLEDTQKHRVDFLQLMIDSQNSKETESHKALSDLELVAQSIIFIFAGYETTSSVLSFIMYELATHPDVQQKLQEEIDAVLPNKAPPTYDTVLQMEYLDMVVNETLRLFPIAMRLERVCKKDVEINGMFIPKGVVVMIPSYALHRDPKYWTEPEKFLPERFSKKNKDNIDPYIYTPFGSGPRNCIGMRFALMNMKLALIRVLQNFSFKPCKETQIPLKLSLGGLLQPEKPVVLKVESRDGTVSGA

## COc1ccccc1CC[C@@H]1CCc2cc([C@H]3CC[C@](N)(CO)C3)ccc2C1 [UDIFITIMOD]
Mus musculus [1]
  Activity: 41%
[2]
  Ratio AUC: 3.1
Mus musculus [3]
  Emax: 0.5 mg/kg/day
[4]
  Activity: 14 mg/dL
[5]
  concentration at 24 h: 30 nM
[6]
  half-life: 46 h
[7]
  Ratio AUC: 1
[8]
  fraction unbound: < 0.001
Rattus norvegicus [9]
  Activity: 76%
[10]
  Vd: 16 L/kg
[11]
  Vd: 21 L/kg
Cytochrome P450 2D6
  IC50: 18 µM
[12]
  half-life: 1.62 h
[13]
  Ratio: 5
Mus musculus [14]
  Activity: Active
Mus musculus [15]
  Activity: Dose-dependent effect
[16]
  half-life: 27 h
[17]
  half-life: 1.83 h
[18]
  Activity: 8.8 mg/dL
[19]
  fraction unbound: < 0.001
Cytochrome P450 2C9
  IC50: 14 µM
[20]
  clearance: 3.8 mL/min/kg
Mus musculus [21]
  Activity: Dose-dependent effect
[22]
  pKa: 9.5
[23]
  concentration at 4 h: 40 nM
[24]
  fraction unbound: < 0.001
[25]
  Activity: Non-Toxic
[26]
  Tmax: 6 h
Rattus norvegicus [27]
  Activity: 81%
[28]
  fraction unbound: < 0.001
Cytochrome P450 3A4
  IC50: 5.5 µM
[29]
  logD: 5.05
[30]
  Tmax: 6 h
[31]
  half-life: 6.2 h
[32]
  Vd: 10 L/kg
Mus musculus [33]
  Activity: 92%
[34]
  Tmax: 6 h
Cytochrome P450 2C19
  IC50: 6.9 µM
Cytochrome P450 1A2
  IC50: > 20 µM
[35]
  clearance: 1.9 mL/min/kg
Rattus norvegicus [36]
  Drug metabolism: 180 nM
[37]
  bioavailability: 23%
[38]
  bioavailability: 61%
